Like-named read-outs stand apart in the source and are kept apart here. Bridge positions count the residues as written; N and C are the ends. Square brackets hold non-standard residues; d marks the D form. Peptide text beside a SMILES is read from it. Dab = NCC[C@H](N)C(=O)O
What was measured:
in vitro [1] = settings: human
[2] = tested on: SARS-CoV-2 (strain Delta); experiment: microbe, parasite or virus in culture; settings: Severe acute respiratory syndrome coronavirus 2, 120 h, read-out: IC50 Delta
[3] = tested on: SARS-CoV-2 (strain 20A.EU2); experiment: microbe, parasite or virus in culture; settings: Severe acute respiratory syndrome coronavirus 2, 96 h, read-out: IC50 20A.EU2
in vitro [4] = settings: human; remark: listed apart in the source
[5] = tested on: SARS-CoV-2 (strain 20A.EU2); settings: strain 20A.EU2, 2 h
[6] = tested on: SARS-CoV-2 (strain Delta); settings: for IC50: strain Delta, 2 h

| Compound | CC50 (in vitro [1]) [µM] | IC50 [2] [µM] | IC50 [3] [µM] | CC50 (in vitro [4]) [µM] | IC50 [5] [µM] | IC50 [6] [µM] | antiviral effect, in words [6] |
| --- | --- | --- | --- | --- | --- | --- | --- |
| N#C[C@@]1(c2ccc3c(N)ncnn23)O[C@H](CO)[C@@H](O)[C@H]1O [GS-441524, reference compound] | > 40 | 2.3 | – | – | – | – | – |
| CCC(CC)COC(=O)[C@H](C)N[P@](=O)(OC[C@H]1O[C@@](C#N)(c2ccc3c(N)ncnn23)[C@H](O)[C@@H]1O)Oc1ccccc1 [remdesivir, reference compound] | – | – | 0.0044 | 43 | – | – | – |
| CC[C@H](C)[C@@H]1NC(=O)[C@@H](NC(=O)[C@H](CCN)NC(=O)[C@@H](NC(=O)[C@H](CC(C)C)NC(C)=O)[C@@H](C)O)CCNC(=O)[C@H](Cn2cc(CC(=O)N[C@@H](CCN)C(=O)N[C@H]3CCNC(=O)[C@H]([C@@H](C)O)NC(=O)[C@H](CCN)NC(=O)[C@H](Cc4c[nH]c5ccccc45)NC(=O)[C@H](CC(C)C)NC(=O)[C@@H](Cc4ccccc4)NC(=O)[C@H](Cc4ccc(O)cc4)NC3=O)nn2)NC(=O)[C@H](CCN)NC(=O)[C@H](CCN)NC(=O)[C@H](Cc2ccc(O)cc2)NC(=O)[C@@H](Cc2ccccc2)NC1=O [dimer 3] | > 50 | – | – | > 50 | > 50 | > 50 | – |
| CC(=O)N[C@@H](CCC(=O)O)C(=O)N[C@H](C(=O)N[C@@H](CCN)C(=O)N[C@H]1CCNC(=O)[C@H](Cn2cc(CC(=O)N[C@@H](CCN)C(=O)N[C@H]3CCNC(=O)[C@H]([C@@H](C)O)NC(=O)[C@H](CCN)NC(=O)[C@H](Cc4c[nH]c5ccccc45)NC(=O)[C@H](CC(C)C)NC(=O)[C@@H](Cc4ccccc4)NC(=O)[C@H](Cc4c[nH]c5ccccc45)NC3=O)nn2)NC(=O)[C@H](CCN)NC(=O)[C@H](CCN)NC(=O)[C@H](CC(C)C)NC(=O)[C@@H](Cc2ccccc2)NC(=O)[C@H](Cc2ccc(O)cc2)NC1=O)[C@@H](C)O [dimer 10] | > 50 | – | – | > 50 | > 50 | > 50 | – |
| CC(C)C[C@@H]1NC(=O)[C@@H](Cc2ccccc2)NC(=O)[C@H](Cc2c[nH]c3ccccc23)NC(=O)[C@@H](NC(=O)[C@@H](N)CCN)CCNC(=O)[C@H]([C@@H](C)O)NC(=O)[C@H](CCN)NC(=O)[C@H](Cc2c[nH]c3ccccc23)NC1=O [monomer 8] (H-[Dab][Dab]W[dF]LW[Dab]T; lactam 2-C) | > 50 | – | – | > 50 | > 50 | > 50 | a hint of antiviral effect |

Reference: paper PMC10218303, “Novel Polymyxin-Inspired Peptidomimetics Targeting the SARS-CoV-2 Spike:hACE2 Interface” (International Journal of Molecular Sciences, 2023)
